Test results taken from patent US6423694B1, “Method of treating otitis media with uridine triphosphates and related compounds” (Inspire Pharmaceuticals, Inc., priority 1996, dated 2002).

How the values were obtained:
[1] = tested on: lung epithelial cells of cystic fibrosis patients; details: U.S. Pat. No. 5,292,498; cited from earlier work
[2] = tested on: lung epithelial cells; details: Boucher et al. 1995, Gheber et al. 1995; cited from earlier work
[3] = tested on: otitis media; assay: Treatment of otitis media in children (Example 1); type: in vivo, human; details: children with otitis media; nasal drops or nasal spray twice daily, 10^-7 to 10^-2 moles/liter, with antibiotic therapy
Procedure: Uridine 5′-triphosphate (UTP) is administered to children diagnosed with otitis media (OM). UTP is administered via nasal drops or nasal spray, twice daily, for a total of 5-10 days. The concentration of UTP is in the range of 10^−7 to 10^−2 moles/liter. Treatment with UTP begins as soon as OM is diagnosed and antibiotic therapy is initiated. The length of treatment for each patient is up to one month (28 days); the preferable length of treatment is one week (7 days). Effectiveness of UTP in eliminating middle ear fluid is assessed by several methods including: pneumatic otoscopy (to diagnose fluid in the middle ear and to evaluate the status of eardrum); tympanometry (to evaluate compliance of tympanic membrane/eardrum and to estimate middle ear pressure); acoustic reflectometry (to diagnose presence of air or fluid in the middle ear); and hearing evaluation tests.

| Compound | chloride and water secretion [1] | ciliary beat frequency [2] | number of days that middle ear fluid is present [3] | number of days that symptoms such as pain or hearing impairment are experienced [3] |
| --- | --- | --- | --- | --- |
| Nc1ncnc2c1ncn2[C@@H]1O[C@H](COP(=O)(O)OP(=O)(O)OP(=O)(O)O)[C@@H](O)[C@H]1O [ATP, adenosine 5′-triphosphate] | induce chloride and water secretion | stimulate the ciliary beat frequency |  |  |
| O=c1ccn([C@@H]2O[C@H](COP(=O)(O)OP(=O)(O)OP(=O)(O)O)[C@@H](O)[C@H]2O)c(=O)[nH]1 [UTP, uridine 5′-triphosphate] | induce chloride and water secretion | stimulate the ciliary beat frequency | decrease in the number of days that middle ear fluid is present | decrease in the number of days that symptoms such as pain or hearing impairment are experienced |
